A word on the melting point: it is the temperature, or range, at which the solid turns liquid.

The molecule `N#CCc1cc(F)cc(Cc2nc3c(F)c(F)cc(F)c3s2)c1` yielded a melting point of 91 to 94 °C. Take `CC1(CO)Cn2cc([N+](=O)[O-])nc2O1` (stereo unspecified): the melting point is 162 to 163 °C. For `N#Cc1cc(Cn2cncn2)cc(-c2ccc(OS(N)(=O)=O)cc2)c1`, the melting point fell in the range of 166 to 167 °C. To `COc1ccccc1-c1cccc2c1OC(CN)CN2C` (stereo unspecified) belongs 90 °C; to `O=C(O)Cc1csc(N=C2SC[C@@H]3Cc4ccccc4CN23)n1`, 185 °C; to `CC(C)Cn1cnc2c(N)nc3ccc(-n4cccc4)cc3c21`, 228 to 232 °C. `O=C(O)C(CCC(=O)N1CCOCC1)Cc1cccc2ccccc12` (stereo unspecified) yielded a melting point of 130 to 135 °C.

As for `COc1ccc(CNc2ncnc3c(N4CCOCC4)nc(N4CCC(N(C)C)CC4)nc23)cc1`, the melting point fell in the range of 124 to 126 °C. As to `CCc1ccc2nc(OC)nc(N)c2c1`, the melting point was in the range of 168 to 170 °C. The molecule `O=C(O)c1ccc(Cc2ccc(O)cc2)cn1` had a melting point of 213 to 215 °C.

As to `O=C(O)c1ccc(Nc2c(C(=O)O)cc(Cl)cc2[N+](=O)[O-])cc1`, the melting point was in the range of 264 to 266 °C. Turning to `CCCOc1ccnc2[nH]cc(-c3ccnc(N)n3)c12`, the melting point was above 210 °C. Molecule `Cc1[nH]c(-c2ccccc2)nc1C(C)O` (stereo unspecified) displayed a melting point of 189 to 190 °C. As for `Cc1nnc(-c2cc3cccc(OC[C@@H](O)CN4CCC(c5ccc6ccccc6c5)CC4)c3o2)o1`, the melting point lay in the range of 140 to 142 °C. For the molecule `CC(C)(C)c1cc(SCCC(=O)NC23CC4CC(CC(C4)C2)C3)cc(C(C)(C)C)c1O`, the melting point lay within 172 to 174 °C. Consider `O=c1c2cnc3cc4c(cc3c2sn1CCc1ccccn1)OCO4`, for which the melting point lay within 200 to 201 °C. For `CC(C)OC(=O)Nc1ccc(O)c(Cl)c1`, the melting point lay in the range of 89 to 90 °C.

`COC(=O)CCc1cc2cc(Cl)ccc2n1S(=O)(=O)c1cccc2cccnc12`: the melting point is 157 to 161 °C. The molecule `CC(C)(C)CNc1nc(-c2[nH]c(C(C)(C)C)nc2-c2ccccc2)ccc1[N+](=O)[O-]` showed a melting point of 224 to 226 °C. With `CCOC(=O)C(C#N)=NOS(C)(=O)=O`, the melting point lay in the range of 79 to 83 °C.

`COCCCCCNC(=O)C(c1ccccc1)c1ccccc1`: the melting point was in the range of 74.2 to 75 °C.

In the case of `O=C(Nc1ccccc1O)c1cccnc1Cl`, the melting point lay in the range of 145 to 146 °C. For `N#Cc1c(N)cccc1[N+](=O)[O-]`, the melting point was 196 to 198 °C. As for `CCOC(=O)C1=C[C@@H](OC(CC)CC)[C@H](NC(C)=O)[C@@H](N=[N+]=[N-])C1`, the melting point is 115 to 117 °C.

Molecule `CCOC(=O)c1c(N2CCOCC2)c2ccc(C)nc2n(CC)c1=O` displayed a melting point of 129 to 131 °C. `Cc1n[nH]c(=O)c(-c2c(F)cccc2Cl)c1-c1ccc(Cl)nc1` had a melting point of 166 to 167 °C.

Regarding `OC[C@H]1O[C@H]1c1ccsc1` (racemic), the melting point is 63 to 65 °C. Turning to `CCS(=O)(=O)c1ccc2c3c(cccc13)C(=O)N2`, the melting point lay within 270 to 272 °C. In the case of `COCCc1sc2ncnc(N)c2c1-c1ccc(N(C(N)=O)c2ccccc2C)cc1`, the melting point is 217 to 219 °C.

The molecule `Cc1ccc2c(c1Cl)C(=O)N(C1(C#N)CCCCC1)C2=O` displayed a melting point of 165 to 168 °C. Take `Cc1cc(CC(=O)O)cc2c1[nH]c1ccccc12`: the melting point lay in the range of 177 to 179 °C.

`CC(C)CNC(=S)Nc1cccc(NC(=O)Nc2ccc(Cl)cc2)c1` yielded a melting point of 195 to 196 °C.

With `CC1(C)C(=O)Nc2ccc(F)cc2N1C(=O)N1CCCC1`, the melting point lay in the range of 199 to 200 °C. As to `CCCCC1CCC(C2=C(Cl)C(=O)c3ccccc3C2=O)CC1` (stereo unspecified), the melting point lay in the range of 107 to 110 °C. To `CC1=C2CCc3cc(C)ccc3N2CCC1=O` belongs 143 to 145 °C. In turn, `O=c1[nH][nH]c(C(F)(F)F)c1Cc1ccc2nccnc2c1` returned a melting point of 266 to 268 °C. Regarding `CCc1nnc(Cc2ccc(NC(=O)/C=C/c3cnn(C)c3-c3ccc(F)cc3)cc2)o1`, the melting point was 164 to 165 °C.

`CC(CCc1ccccc1)NCC(O)c1cc(C(N)=O)c2[nH]ccc2c1` (stereo unspecified) gave a melting point of 94 to 100 °C. `NCCCP(=O)(O)CC(O)CN1C(=O)c2ccccc2C1=O` (stereo unspecified) yielded a melting point of 268 to 271 °C. To `Nc1ncc(Sc2cccnc2)s1` belongs 140 to 142 °C; to `Cc1ccsc1C=Cc1nccn1C`, 287 to 288 °C. `CC1CC(=O)NN=C1c1ccc2c(c1)nc(C1CC1)n2Cc1ccc(-c2ccccc2-c2nnn[nH]2)cc1` (stereo unspecified) gave a melting point of 265 °C.

On to `CNC1C=CC(C(C)C)C2CNCC12` (stereo unspecified), for which the melting point was 76 to 81 °C. For `COC(=O)c1ccc(-c2cc(-c3ccc4c(c3)C(C)(C)CCC4(C)C)[nH]n2)cc1`, the melting point was 155 to 156 °C. On to `Cn1c(COc2ccc(CC3SC(=O)NC3=O)cc2)nc2ccc(Oc3ccc(NC(=S)NC4CCCCC4)cc3)cc21` (stereo unspecified), for which the melting point fell in the range of 173 to 174 °C. The molecule `COc1ccc(-n2nc(C(=O)O)c3c2CCCC3)cc1` had a melting point of 233 to 234 °C. `CC1(C)CC(=O)C(C(=O)c2ccc(Cl)cc2[N+](=O)[O-])C(=O)N1` (stereo unspecified) came in with a melting point of 162 °C.

`CCOC(=O)c1c(N2CCN(C(=O)c3ccco3)CC2)c2cc(F)cnc2n(Cc2ccccc2)c1=O` registered a melting point of 119 °C. Turning to `Cc1cc2c(-c3cccc(C=O)c3)c(CC(=O)Nc3ccc(Cl)cc3C(F)(F)F)c(=O)oc2cc1Cl`, the melting point lay in the range of 232 to 233 °C. As for `O=C(O)Cc1ccc2c(c1)CCCOO2`, the melting point is 99 to 101 °C. For the molecule `CCOC(=O)Cc1ccc(NC(=O)C(COc2ccccc2)NS(=O)(=O)c2ccc(Br)cc2)cc1` (racemic), the melting point lay in the range of 150 to 153 °C. To `COc1ccc(C2CCc3cc(OC)ccc3C2C#N)cc1` (stereo unspecified) belongs 92 °C. On to `CCOP(=O)(OCC)c1ccccc1`, for which the melting point worked out at 256 °C.

Turning to `CC1(C)C2=C(CCC2=O)c2ccccc21`, the melting point is 114 °C. Regarding `[N-]=[N+]=NCc1cccnc1`, the melting point was 40 to 43 °C.

The molecule `O=C(NC1CCCCC1)c1c(O)c2cccnc2n(Cc2ccccc2)c1=O` gave a melting point of 143 °C. The molecule `CC(C)(C)c1cc(CCc2cc(F)cc(F)c2NC(=O)NCC(C)(C)c2ccc(Cl)c(Cl)c2)cc(C(C)(C)C)c1O` returned a melting point of 159 to 160 °C. `CC(C)Nc1ccc(NC(=O)C2(C)CC2)cc1C(F)(F)F` displayed a melting point of 100 to 102 °C.

`N#CC1CN1C(=O)CNC(=O)c1ccccc1` (stereo unspecified): the melting point fell in the range of 78 to 81 °C. Turning to `CCCCc1cc(-c2nnn[nH]2)ncc1C(=O)O`, the melting point was above 300 °C. To `O=C(Nc1cc(-c2nc(Cc3ccccc3)no2)ccn1)c1ccccc1` belongs 150 to 151 °C.

Regarding `COc1ccc(Oc2cccc(C(=O)O)c2)cc1`, the melting point is 141 to 143 °C. Molecule `CC(C)(C)OC(=O)[C@@H]1CCC(=O)N1` came in with a melting point of 91 to 92 °C. In turn, `O=C1N(Cc2ccc(Br)cc2)c2ccccc2C12COc1cc3c(cc12)OCO3` (stereo unspecified) registered a melting point of 148 to 150 °C. In turn, `COc1ccc(C(=O)c2[nH]c3cc(Cl)ccc3c2CC(=O)O)cc1` had a melting point of 187 to 190 °C. The molecule `Cc1nc(-c2cn(Cc3ccc(C(F)(F)F)cc3)nn2)sc1C(=O)NCc1ccccc1` returned a melting point of 131 to 132 °C. In turn, `Cc1cccc(C2CNCCN2C(=O)N(c2ccccc2)c2ccccc2)c1` (stereo unspecified) came in with a melting point of 119 to 121 °C. With `CC[C@@H]1N(c2ccc(C#N)c(Cl)c2)C(=O)C[C@]1(C)O`, the melting point fell in the range of 144 to 146 °C.

Regarding `CCOC(=O)c1nc(O)n2c1c(=O)n(C)c1cc(C(F)(F)F)ccc12`, the melting point is above 300 °C. `N#CC(C(=O)Nc1ccon1)C(=O)c1nn(-c2ccccc2)c2c1CSc1ccccc1-2` (stereo unspecified): the melting point lay in the range of 228 to 230 °C. The molecule `CC(C)=CC(=O)N1CC(c2ccccc2)c2ccccc21` (stereo unspecified) yielded a melting point of 97 to 98 °C. To `Cn1nc2c(sc3ccccc32)c1N` belongs 233 °C; to `CCCN(CC1CC1)c1nc(C)nc2c1CCCC2(C)c1ccc(Cl)cc1` (stereo unspecified), 171 to 172 °C. Consider `NNC(=O)c1ncn2c1C1CCN1C(=O)c1sccc1-2` (stereo unspecified), for which the melting point lay in the range of 260 to 263 °C.

Molecule `CCOC(=O)C=Cc1ccc(-c2ccccc2)cc1` returned a melting point of 88.6 °C. `CN1CCC(OC2c3ccc(Br)cc3CCn3cc(-c4ccccc4)nc32)CC1` (stereo unspecified) came in with a melting point of 92 °C. `Cc1c(O)ccc2c(=O)cc(N3CCOCC3)oc12` registered a melting point above 250 °C. `CCCc1nc2c(N)nc3ccc(-c4ccc(NC(C)=O)cc4)cc3c2s1` came in with a melting point of 251 to 254 °C.

With `CC1(C)CC(=O)C1(Br)CC(Cl)(Cl)Cl` (stereo unspecified), the melting point fell in the range of 46 to 49 °C. Turning to `COC1(OC)C=CC=CC1C1c2cccc(O)c2C(=O)c2c(O)cccc21` (stereo unspecified), the melting point was determined as 152 °C. For the molecule `COC(=O)c1ccccc1-c1cc(-c2ccc(Cl)cc2)on1`, the melting point fell in the range of 85 to 86 °C. On to `Cc1c(NC(=O)c2ccc(-c3cccc(NC(=O)C(C)C)c3)cc2)ccc2cc(CN3CCCC3)cnc12`, for which the melting point lay within 152 to 155 °C. `O=C1NC(Cc2ccc(OCc3ccccc3)cn2)C(=O)NC1Cc1ccc(Cl)cc1` (stereo unspecified) displayed a melting point of 227 to 229 °C. On to `COc1ccc(-c2cc3oc(=O)c4ccccc4c3nn2)cc1`, for which the melting point was 270 °C. The molecule `Cc1ccc(CS(=O)(=O)c2nc3cscc3[nH]2)nc1` had a melting point of 163 °C.

On to `CCNC(=NS(=O)(=O)c1ccc(Cl)cc1)N1CC(c2ccccc2)C(c2ccc(Cl)cc2)=N1` (single isomer, unassigned; (-)), for which the melting point was 172 to 175 °C. As for `O=C(Oc1cc(OC(=O)c2cc(O)c(O)c(O)c2)c2ccccc2c1)c1cc(O)c(O)c(O)c1`, the melting point was 163 to 164 °C. Regarding `CC(C)(C)OC(=O)N1CCC(C(=O)N2CCc3ccc4[nH]c(=O)c(=O)[nH]c4c3C2)CC1`, the melting point lay within 283 to 286 °C. The molecule `CCOC(=O)C(=CNc1ccc(F)c(Cl)c1)C(=O)c1ccccc1Cl` displayed a melting point of 96 to 102 °C.

Regarding `S=C(NCc1cccnc1)NC(=Nc1ccccc1)c1ccccc1`, the melting point was in the range of 146 to 147 °C. Molecule `CC(C)C(=O)Nc1ccc(C(=O)Nc2ccccc2[N+](=O)[O-])cc1` displayed a melting point of 238 °C.

The values are drawn from a melting point compilation (Tetko et al.; mined from patent text by program, amines drawn as free bases though some values may be those of a salt).
